Experimental data as given in US11439646B2, “Anti-proliferative agents for treating PAH” (Pfizer Inc., priority 2016, dated 2022).

Assays:
hPASMC = experiment: EdU cell proliferation assay, hPASMC; assay type: cell-based; settings: Homo sapiens, 5% FBS, N = 6, FIG. 1e, read-out: hPASMC IC50 (nM), inhibition of proliferation
Protocol: (§1) Alternatively, rather than using BrdU, EdU (5-ethynyl-2′-deoxyuridine) can be used. Cells were first pre-incubated with different concentrations of the CDK inhibitor for 30 minutes, and then 5% FBS was added to stimulate cell proliferation. Cells were maintained for 24 h before the proliferation rate was evaluated using EDU Click-iT EdU Alexa Fluor® 647 HCS Assay (Thermofisher Scientific, USA). EdU was added to the medium 16 h before the quantification of EdU incorporation. Proliferation was quantified by scanning the 96-well plates using automated high content imaging platform equipped with appropriate fluorescence microscopic filters for DAPI (4′,6-Diamidino-2-Phenylindole) or Hoechst stain and Cyanine5 dyes as part of the Click-iT assay. Proliferating EdU positive cells detected at Cyanine5 were quantified and normalized to total cell number per well where the total cell number per cell was identified by DAPI or Hoechst signal. The % effect was then calculated:
(§2) The average (avg) amount (amt) of proliferating cells per concentration of CDK inhibitor with FBS present.
(§3) The minimum amount of proliferation (min amt of prolif'n) is based on cell numbers in the wells where FBS is not added and no CDK inhibitor is present.
(§4) The maximum amount of proliferation (max amt of prolif'n) is based on cell numbers in the wells where FBS is added and no CDK inhibitor is present.

hPAAF = experiment: EdU cell proliferation assay, hPAAF; assay type: cell-based; settings: Homo sapiens, 5% FBS, N = 6, FIG. 1f, read-out: hPAAF IC50 (nM), inhibition of proliferation
Protocol: as §1, §2, §3, §4

rPASMC = experiment: EdU cell proliferation assay, rPASMC; assay type: cell-based; settings: Rattus norvegicus, 5% FBS, N = 6, FIG. 1g, read-out: rPASMC IC50 (nM), inhibition of proliferation
Protocol: as §1, §2, §3, §4

rat Su5416/Hx PAH model = experiment: Rat SuHx (Su5416/hypoxia)-induced PAH model (hemodynamics, histomorphometry, IHC); assay type: in vivo
Protocol: SuHx-induced Pulmonary Arterial Hypertension: Sprague-Dawley rats were obtained from Charles River Laboratories (200-300 g; vehicle control, n=5; all other groups, n=10). Rats received Semaxinib dissolved in DMSO on day 0, followed by housing in low (13%) oxygen until day 28. Sildenafil (30 mg/kg/dose; BID), Riociguat (10 mg/kg, QD) or Palbociclib (100 mg/kg; QD) was administered in vehicle (0.5% methylcellulose) from days 7-28. Terminal hemodynamic evaluations and necropsy were conducted on day 28 in a manner similar to the MCT study.
Hemodynamic measurements Su/Hx study: On day 28, animals were anesthetized via intramuscular injection of ketamine/xylazine (80/10 mg/kg). A Millar catheter was inserted into the pulmonary artery and pulmonary pressure and hemodynamics were measured as described by Stringer et al., (1981) Catheterization of the pulmonary artery in the closed-chest rat. J. Appl. Physiol. 51, 1047-1050. Hemodynamic values were calculated using the NOTOCORD-Hem software (NOTOCORD, Inc., Croissy sur Sienne, France) (CorDynamics).
Measurement of RV hypertrophy. After collection of the heart at necropsy, the atria and great vessels were removed. The RV was separated from the LV and S. The wet weights of the RV and LV+S were measured to calculate the Fulton Index.
Tissue preparation. Under anesthesia, the animals were exsanguinated, and the pulmonary circulation flushed with oxygenated (animals from Example 3 [MCT]) or heparizined (animals from Example 4 [Su5416/Hx]) saline. Trachea, lungs, and heart were removed intact from thoracic cavity and placed in ice-cold saline. Right lung lobes were removed, weighed, and immediately flash frozen in liquid nitrogen. A 10 mL syringe filled with fixative (10% NBF) with attached blunt tip needle (20 g) was used to inflate the left lung lobe and the airway was tied off to keep it consistently expanded. The left lung was then immersion fixed in 10% NBF for 48 hrs and then transferred to 70% EtOH for ≤5 days.
Histomorphometric analysis. Three, 3-5 μm thick, transverse sections of the left lung lobe were used for histomorphometric analysis. Overall disease severity scores were determined by light microscopic evaluation of hematoxylin and eosin (H&E)-stained lung sections by a board-certified veterinary pathologist. Scores ranged from 0 (absent), 1 (minimal), 2 (mild), 3 (moderate), 4 (marked) to 5 (severe) and were assigned according to the approximate percentage of the tissue affected by the tissue changes (inflammatory, degenerative, vascular and/or proliferative) characteristic of the PAH model. Average vessel wall thickness was evaluated using lung sections prepared with a modified Verhoeff-van Gieson elastin stain. Image analysis was performed using random field sampling (Visiopharm newCAST) of 10% of tissue area with observer-assisted identification of intra-acinar and pre-acinar vessels and application of a nucleator probe to measure vessel wall thickness. Fully muscularized intra-acinar vessel density was evaluated in a similar manner using dual αSMA/Ki67 IHC-stained sections and observer-assisted counting of ≥70% muscularized (i.e. SMA^+), transversely sectioned, ≤50 μm external diameter, intra-acinar vessels with an identifiable lumen. Vessel-associated Ki67^+ and pRb^+ cells were counted in αSMA/Ki67 IHC-and CD31/pRb IHC-stained lung sections, respectively, using random field sampling of 10% of tissue area and observer-assisted identification of Ki67^+ or pRb^+ cells associated with the walls (i.e. in the intima or media) of vessels 100 μm external diameter.
Immunohistochemistry. Dual α-SMA/Ki67 nuclear antigen: All IHC steps were performed on 3 μm-thick, formalin-fixed, paraffin-embedded (FFPE) sections on Leica Bond Rx automated immunohistochemistry stainer. The instrument was programmed to bake and dewax the slides. […]

[1] = days 7 to 28, score scale 0-5, FIG. 4g

SMILES: CC(=O)c1c(C)c2cnc(Nc3ccc(N4CCNCC4)cn3)nc2n(C2CCCC2)c1=O [Palbociclib, 6-acetyl-8-cyclopentyl-5-methyl-2-{[5-(piperazin-1-yl)pyridin-2yl]amino}pyrido[2,3-d]pyrimidin-7(8H)-one]
- IC50 (hPASMC): 0.3 nM
- IC50 (hPAAF): 0.4 nM
- IC50 (rPASMC): 19 nM
- vessel-associated Ki67+ cells in the pulmonary vasculature (IHC) (rat Su5416/Hx PAH model; days 7 to 28): fully reversed
- vessel-associated pRb+ cells in the pulmonary vasculature (IHC) (rat Su5416/Hx PAH model; days 7 to 28): fully reversed
- Fulton Index (rat Su5416/Hx PAH model; days 7 to 28, FIG. 4c): significant reduction
- muscularized intra-acinar vessel density relative to vehicle/Su5416/Hx group (rat Su5416/Hx PAH model; days 7 to 28, FIG. 4e): 0.68 x Su5416/Hx
- structural changes in the pulmonary vasculature (histomorphometry) (rat Su5416/Hx PAH model; days 7 to 28, FIG. 4f): dramatically improved and in some cases fully normalized
- heart weight vs vehicle/Su5416/Hx group (rat Su5416/Hx PAH model; days 7 to 28, FIG. 4j): significant reduction
- average vessel wall thickness, intra-acinar and pre-acinar vessels (rat Su5416/Hx PAH model; days 7 to 28, FIG. 4d): significantly reduced
- disease severity scores, mean (rat Su5416/Hx PAH model; [1]): 0.25
- disease severity scores, range (rat Su5416/Hx PAH model; [1]): 0-1.5
- hemodynamic endpoints / hemodynamic changes (rat Su5416/Hx PAH model; palbociclib 100 mg/kg/day PO QD days 7 to 28): restored hemodynamic endpoints closer to the non-diseased control group
- hemodynamic endpoints / hemodynamic changes (rat Su5416/Hx PAH model; palbociclib 100 mg/kg/day PO QD days 7 to 28, listed as palbociclib): near-complete suppression
